From publication PMC8717366, “Synthesis and Pharmacological Characterization of Visabron, a Backbone Cyclic Peptide Dual Antagonist of α4β1 (VLA-4)/α9β1 Integrin for Therapy of Multiple Sclerosis” (JACS Au, 2021)
Like-named read-outs stand apart in the source and are kept apart here. Numbered stars: 1 amine (or outer) side, 2 acyl side, 3 side chain; on linkers, the order of the positions; unused ones are H or OH. Bridge positions count the residues as written; N and C are the ends. Square brackets hold non-standard residues; d marks the D form. Peptide text beside a SMILES is read from it. CO = O=C([*:1])[*:2]; Nlys = NCCCCNCC(=O)O

Legend:
[1] = 48 h
Experimental: Eight-week-old C57Bl/6 mice were obtained from Envigo animal breeding center in Israel. All experiments were approved by the Institutional Animal Care and Use Committee, and performed according to OECD guidelines for chemical testing. One group of five mice (7683–87) received visabron c (4–4) by iv injection in a volume of 0.2 mL/mouse at a dose of 10 mg/mice (about 500 mg/kg), and another group of five mice (7688–92) received per-os visabron c (4–4) at a dose of 10 mg/mice, dissolved in a nanoemulsifying drug delivery system,[48] in a bolus of 0.4 mL/mouse. After 48 h of exposure, the animals were sacrificed and the organs were harvested for the detection of possible toxicological lesions in the framework of a safety assessment. Then the organs were fixed in 4% formaldehyde, trimmed in a standard position per organ, and transferred to embedding cassettes. Paraffin blocks were sectioned at approximately 3–5 μm thickness. The sections were applied on a glass slide and stained with hematoxylin and eosin (H&E). Pictures were taken on a microscope (Olympus BX60) at magnifications of X4 and X10 using the microscope’s camera (Olympus DP73). An experienced pathologist (Dr. Loeb Emanuel) examined the slides. Microscopically findings were classified with standard pathological nomenclature and the severity of the findings was graded on a scale of minimal, mild, or severe. Grades of severity for microscopic findings were subjective; minimal was the least extent discernible and severe was the greatest extent possible.
Table S11. Histological pathological grades of organs slides obtained from mice treated for 48 h with 500 mg/kg Visabron c(4-4)*
Number** Heart Lung Kidney Intestine Large Stomach Spleen Liver Brain […]
*Grade 0: no signs of pathological changes; Grade 1: mild pathological changes; Grade 2: moderate pathological changes; Grade 3: severe pathological changes.

[2] = tested on: SafetyScreen44 targets; test: SafetyScreen44 off-target panel (44 binding, enzymatic and transporter assays); conditions: 1 mM; threshold of 40% for binding competition; Figure 5
Experimental: (§1) Screening of potentially significant off-target effects to binding and enzyme targets was performed via SafetyScreen44 offered by Eurofins Cerep-Panlabs. Visabron c (4–4) was tested at 1 and 0.1 mM. Compound binding was calculated as the percentage of inhibition of the binding of a radioactively labeled ligand specific for each target. The compound enzyme inhibitory effect was calculated as the percentage of inhibition of control enzyme activity. Results showing inhibition higher than 40% were considered to represent significant effects of the tested compound. Results showing inhibition lower than 25% as obtained with 0.1 mM Visabron c (4–4) were not considered significant and were mostly attributable to the variability of the signal around the control level. In each experiment, the respective reference compound was tested concurrently with visabron c (4–4), and the data were compared with historical values determined at Eurofins. The experiment was statistically accepted in accordance with the Eurofins validation standard operating procedure.

[3] = tested on: cyclooxygenase (COX) enzymes; test: SafetyScreen44 enzyme inhibition, cyclooxygenases; type: biochemical; conditions: 1 mM; Figure 6
Experimental: as §1

[4] = 500 mg/kg i.v., all five mice 7683-7687
[5] = 500 mg/kg per os, all five mice 7688-7692

## CSCC[C@@H]1NC(=O)[C@H]([C@@H](C)O)NC(=O)CN(C(=O)[C@@H](N)CCCCN)CCCCNC(=O)NCCCCN(CC(=O)N[C@@H](CC(C)C)C(N)=O)C(=O)[C@H](CC(=O)O)NC(=O)[C@H](CC(C)C)NC1=O [visabron c (4–4)] (H-K[Nlys]TMLD[Nlys]L-NH2; linker 2-7 via CO)
[1]; [4]
  Histological pathological grade, Brain: 0
  Histological pathological grade, Heart: 0
  Histological pathological grade, Kidney: 0
  Histological pathological grade, Liver: 0
  Histological pathological grade, Lung: 0
  Histological pathological grade, Small Intestine: 0
  Histological pathological grade, Spleen: 0
  Histological pathological grade, Stomach: 0
[1]; 500 mg/kg i.v., mouse 7683
  Histological pathological grade, Large Intestine: 0
[1]; 500 mg/kg i.v., mouse 7684, finding considered accidental, most probably not related to the tested compound
  Histological pathological grade, Large Intestine: 3
[1]; 500 mg/kg i.v., mouse 7685, finding considered accidental, most probably not related to the tested compound
  Histological pathological grade, Large Intestine: 3
[1]; 500 mg/kg i.v., mouse 7686
  Histological pathological grade, Large Intestine: 0
[1]; 500 mg/kg i.v., mouse 7687
  Histological pathological grade, Large Intestine: 0
[1]; [5]
  Histological pathological grade, Brain: 0
  Histological pathological grade, Heart: 0
  Histological pathological grade, Kidney: 0
  Histological pathological grade, Liver: 0
  Histological pathological grade, Lung: 0
  Histological pathological grade, Small Intestine: 0
  Histological pathological grade, Spleen: 0
  Histological pathological grade, Stomach: 0
[1]; 500 mg/kg per os, mouse 7688
  Histological pathological grade, Large Intestine: 0
[1]; 500 mg/kg per os, mouse 7689
  Histological pathological grade, Large Intestine: 0
[1]; 500 mg/kg per os, mouse 7690, finding considered accidental, most probably not related to the tested compound
  Histological pathological grade, Large Intestine: 2
[1]; 500 mg/kg per os, mouse 7691
  Histological pathological grade, Large Intestine: 0
[1]; 500 mg/kg per os, mouse 7692
  Histological pathological grade, Large Intestine: 0
[1]; i.v. or per o.s., 500 mg/kg
  Short-term adverse pathological effects on major organs: without short-term adverse pathological effects
[2]
  Interaction with the majority of the physiological targets: did not interact
[3]
  Inhibition of cyclooxygenase (COX) enzymes: moderately inhibited
